# From patent US20090082358A1, “Vanilloid receptor ligands and their use in treatments” (priority 2007, published 2009)
# Target: T1, human TRPM8 (Homo sapiens, UniProt Q7Z2W7)
# T1 construct: expressed in transfected cells; host or cells: CHO cells, T-REx tetracycline-inducible expression system (Invitrogen), co-transfected with pcDNA3.1 aequorin
# Experiment: Luminescence readout assay for measuring intracellular calcium (aequorin), antagonism of cold buffer activation
# Assay type: cell-based
# Conditions: CHO cells expressing human TRPM8; activation by cold buffer (<10° C.)
# Protocol: Luminescence readout assay for measuring intracellular calcium. Stable CHO cell lines expressing human TRPM8 were generated using tetracycline inducible T-REx™ expression system from Invitrogen, Inc (Carlsbad, Calif.). […] Twenty four hours before the assay, cells were seeded in 96-well plates and TRP channel expression was induced with 0.5 μg/ml tetracycline.
# T1 sequence (Q7Z2W7 whole entry): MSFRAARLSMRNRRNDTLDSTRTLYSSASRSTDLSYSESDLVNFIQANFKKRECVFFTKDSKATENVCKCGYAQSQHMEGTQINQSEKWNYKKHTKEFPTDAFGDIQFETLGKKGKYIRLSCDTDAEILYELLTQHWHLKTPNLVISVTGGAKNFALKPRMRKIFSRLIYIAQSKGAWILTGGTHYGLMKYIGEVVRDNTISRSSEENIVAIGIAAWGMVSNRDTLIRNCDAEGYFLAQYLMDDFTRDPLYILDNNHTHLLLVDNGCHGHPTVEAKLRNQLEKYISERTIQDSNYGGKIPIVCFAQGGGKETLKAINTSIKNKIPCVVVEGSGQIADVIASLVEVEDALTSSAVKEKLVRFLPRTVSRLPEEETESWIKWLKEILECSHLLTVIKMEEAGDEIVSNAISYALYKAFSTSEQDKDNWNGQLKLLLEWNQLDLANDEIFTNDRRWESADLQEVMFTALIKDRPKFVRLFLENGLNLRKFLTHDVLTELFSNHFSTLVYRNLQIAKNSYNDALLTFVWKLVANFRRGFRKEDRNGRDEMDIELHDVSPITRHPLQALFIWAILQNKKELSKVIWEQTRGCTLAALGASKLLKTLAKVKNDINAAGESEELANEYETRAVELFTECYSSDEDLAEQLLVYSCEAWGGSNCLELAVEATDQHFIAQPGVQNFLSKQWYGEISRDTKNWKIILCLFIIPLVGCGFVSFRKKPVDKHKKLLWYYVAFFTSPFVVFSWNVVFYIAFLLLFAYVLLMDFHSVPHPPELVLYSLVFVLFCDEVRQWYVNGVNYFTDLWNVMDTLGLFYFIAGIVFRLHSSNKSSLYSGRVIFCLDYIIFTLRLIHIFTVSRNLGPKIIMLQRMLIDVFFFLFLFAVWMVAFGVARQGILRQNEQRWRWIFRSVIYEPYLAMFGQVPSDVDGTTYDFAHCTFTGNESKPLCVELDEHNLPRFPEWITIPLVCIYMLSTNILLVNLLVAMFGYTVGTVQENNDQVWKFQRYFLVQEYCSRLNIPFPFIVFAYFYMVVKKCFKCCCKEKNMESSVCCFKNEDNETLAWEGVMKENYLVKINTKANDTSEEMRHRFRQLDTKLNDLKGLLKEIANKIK
row,Structure (SMILES),IC50 [µM]
1,"CC(C)(C)NC(=O)N1CCc2cccnc2[C@H]1c1ccc(C(F)(F)F)cc1 [Example 28, (R)—N-tert-butyl-8-(4-(trifluoromethyl)phenyl)-5,6-dihydro-1,7-naphthyridine-7(8H)-carboxamide]",< 5
2,"C[C@@H](NC(=O)N1CCc2cccnc2[C@H]1c1ccc(C(F)(F)F)cc1)c1ccccc1 [Example 29, (R)—N—((R)-1-phenylethyl)-8-(4-(trifluoromethyl)phenyl)-5,6-dihydro-1,7-naphthyridine-7(8H)-carboxamide]",< 5
3,"O=C(Nc1ccccn1)N1CCc2cccnc2[C@H]1c1ccc(C(F)(F)F)cc1 [Example 30, (R)—N-(pyridin-2-yl)-8-(4-(trifluoromethyl)phenyl)-5,6-dihydro-1,7-naphthyridine-7(8H)-carboxamide]",< 5
4,"O=C(Nc1ccc(-c2ccccc2)cc1)N1CCc2cccnc2[C@H]1c1ccc(C(F)(F)F)cc1 [Example 31, (R)—N-(4-biphenyl)-8-(4-(trifluoromethyl)phenyl)-5,6-dihydro-1,7-naphthyridine-7(8H)-carboxamide]",< 5
5,"O=C(NCc1ccccc1)N1CCc2cccnc2[C@H]1c1ccc(C(F)(F)F)cc1 [Example 32, (R)—N-benzyl-8-(4-(trifluoromethyl)phenyl)-5,6-dihydro-1,7-naphthyridine-7(8H)-carboxamide]",< 5
6,"O=C(Nc1cccc(F)c1)N1CCc2cccnc2[C@H]1c1ccc(C(F)(F)F)cc1 [Example 33, (R)—N-(3-fluorophenyl)-8-(4-(trifluoromethyl)phenyl)-5,6-dihydro-1,7-naphthyridine-7(8H)-carboxamide]",< 5
7,"COc1ccc(NC(=O)N2CCc3cccnc3[C@H]2c2ccc(C(F)(F)F)cc2)cc1 [Example 35, (R)—N-(4-methoxyphenyl)-8-(4-(trifluoromethyl)phenyl)-5,6-dihydro-1,7-naphthyridine-7(8H)-carboxamide]",< 5
8,"O=C(N[C@H]1C[C@H]1c1ccccc1)N1CCc2cccnc2[C@H]1c1ccc(C(F)(F)F)cc1 [Example 36, (R)—N-((1S,2S)-2-phenylcyclopropyl)-8-(4-(trifluoromethyl)phenyl)-5,6-dihydro-1,7-naphthyridine-7(8H)-carboxamide]",< 5
9,"O=C(Nc1ccc2c(c1)OCO2)N1CCc2cccnc2[C@H]1c1ccc(C(F)(F)F)cc1 [Example 37, (R)—N-(benzo[d][1,3]dioxol-5-yl)-8-(4-(trifluoromethyl)phenyl)-5,6-dihydro-1,7-naphthyridine-7(8H)-carboxamide]",< 5
10,"CC(C)NC(=O)N1CCc2nccnc2[C@H]1c1ccc(C(F)(F)F)cc1 [Example 38, (R)—N-Isopropyl-5-(4-(trifluoromethyl)phenyl)-7,8-dihydropyrido[3,4-b]pyrazine-6(5H)-carboxamide]",< 5
11,"O=C(Nc1cccnc1)N1CCc2nccnc2[C@H]1c1ccc(C(F)(F)F)cc1 [Example 39, (R)—N-(Pyridin-3-yl)-5-(4-(trifluoromethyl)phenyl)-7,8-dihydropyrido[3,4-b]pyrazine-6(5H)-carboxamide]",< 5
12,"O=C(Nc1ccc(C(F)(F)F)cc1)N1CCc2cccnc2[C@H]1c1ccc(C(F)(F)F)cc1 [Example 40, (R)—N,8-Bis(4-(trifluoromethyl)phenyl)-5,6-dihydro-1,7-naphthyridine-7(8H)-carboxamide]",< 5
13,"N#Cc1ccccc1NC(=O)N1CCc2cccnc2[C@H]1c1ccc(C(F)(F)F)cc1 [Example 41, (R)—N-(2-Cyanophenyl)-8-(4-(trifluoromethyl)phenyl)-5,6-dihydro-1,7-naphthyridine-7(8H)-carboxamide]",< 5
14,"N#Cc1cccc(NC(=O)N2CCc3cccnc3[C@H]2c2ccc(C(F)(F)F)cc2)c1 [Example 42, (R)—N-(3-Cyanophenyl)-8-(4-(trifluoromethyl)phenyl)-5,6-dihydro-1,7-naphthyridine-7(8H)-carboxamide]",< 5
15,"O=C(OCc1ccccc1)N1C=Cc2cccnc2C1c1ccc(C(F)(F)F)cc1 (stereo not shown) [Example 43, Benzyl 8-(4-(trifluoromethyl)phenyl)-1,7-naphthyridine-7(8H)-carboxylate]",< 5
16,"CCOC(=O)N1C=Cc2cccnc2C1c1ccc(F)cc1 (stereo not shown) [Example 44, Ethyl 8-(4-fluorophenyl)-1,7-naphthyridine-7(8H)-carboxylate]",< 5
17,"CCOC(=O)N1CCc2cccnc2C1c1ccc(F)cc1 (stereo not shown) [Example 45, Ethyl 8-(4-fluorophenyl)-5,6-dihydro-1,7-naphthyridine-7(8H)-carboxylate]",< 5
18,"O=C(Nc1ccc(F)cc1)N1CCc2cccnc2C1c1ccc(F)cc1 (stereo not shown) [Example 46, N,8-Bis(4-fluorophenyl)-5,6-dihydro-1,7-naphthyridine-7(8H)-carboxamide]",< 5
19,"O=C(Nc1ccc(F)cc1)N1CCc2cccnc2C1c1ccc(-c2ccccc2)cc1 (stereo not shown) [Example 47, N-(4-Fluorophenyl)-8-(4-biphenyl)-5,6-dihydro-1,7-naphthyridine-7(8H)-carboxamide]",< 5
20,"O=C(Nc1ccc(F)cc1)N1CCc2c(-c3ccc(F)cc3)ccnc2[C@H]1c1ccc(C(F)(F)F)cc1 [Example 54, (R)—N,4-bis(4-fluorophenyl)-8-(4-(trifluoromethyl)phenyl)-5,6-dihydro-1,7-naphthyridine-7(8H)-carboxamide]",< 5
21,"Cc1ccnc2c1CCN(C(=O)Nc1ccc(F)cc1)[C@@H]2c1ccc(C(F)(F)F)cc1 [Example 55, (R)—N-(4-fluorophenyl)-4-methyl-8-(4-(trifluoromethyl)phenyl)-5,6-dihydro-1,7-naphthyridine-7(8H)-carboxamide]",< 5

# Second part, the molecule after the results:
row,IC50 [µM],Structure (SMILES)
1,< 5,"C[C@@H]1Cc2cccnc2[C@H](c2ccc(C(F)(F)F)cc2)N1C(=O)Nc1ccc(F)cc1 (racemic) [Example 48, (6R,8)-N-(4-Fluorophenyl)-6-methyl-8-(4-(trifluoromethyl)phenyl)-5,6-dihydro-1,7-naphthyridine-7(8H)-carboxamide and (6S,8R)—N-(4-fluorophenyl)-6-methyl-8-(4-(trifluoromethyl)phenyl)-5,6-dihydro-1,7-naphthyridine-7(8H)-carboxamide]"
2,< 5,"C[C@@H]1CN(C(=O)Nc2ccc(F)cc2)[C@H](c2ccc(C(F)(F)F)cc2)c2ncccc21 (racemic) [Example 49, (5S,8R)—N-(4-Fluorophenyl)-5-methyl-8-(4-(trifluoromethyl)phenyl)-5,6-dihydro-1,7-naphthyridine-7(8H)-carboxamide and (5R,8S)—N-(4-fluorophenyl)-5-methyl-8-(4-(trifluoromethyl)phenyl)-5,6-dihydro-1,7-naphthyridine-7(8H)-carboxamide]"
3,< 5,"CCOC(=O)N1C=Cc2ncccc2C1c1ccc(C(F)(F)F)cc1 (stereo not shown) [Example 1, Ethyl 5-(4-(trifluoromethyl)phenyl)-1,6-naphthyridine-6(5H)-carboxylate]"
4,< 5,"CCOC(=O)N1C=Cc2cccnc2C1c1ccc(C(F)(F)F)cc1 (stereo not shown) [Example 5, Ethyl 8-(4-(trifluoromethyl)phenyl)-1,7-naphthyridine-7(8H)-carboxylate]"
5,< 5,"CCOC(=O)N1C=Cc2nccnc2C1c1ccc(C(F)(F)F)cc1 (stereo not shown) [Example 12, Ethyl 5-(4-(trifluoromethyl)phenyl)pyrido[3,4-b]pyrazine-6(5H)-carboxylate]"
6,< 5,"COc1ccccc1NC(=O)N1CCc2cccnc2[C@H]1c1ccc(C(F)(F)F)cc1 [Example 20, (R)—N-(2-methoxyphenyl)-8-(4-(trifluoromethyl)phenyl)-5,6-dihydro-1,7-naphthyridine-7(8H)-carboxamide]"
7,< 5,"O=C(Nc1ccccc1F)N1CCc2cccnc2[C@H]1c1ccc(C(F)(F)F)cc1 [Example 21, (R)—N-(2-fluorophenyl)-8-(4-(trifluoromethyl)phenyl)-5,6-dihydro-1,7-naphthyridine-7(8H)-carboxamide]"
8,< 5,"O=C(NCCc1ccccc1)N1CCc2cccnc2[C@H]1c1ccc(C(F)(F)F)cc1 [Example 22, (R)—N-phenethyl-8-(4-(trifluoromethyl)phenyl)-5,6-dihydro-1,7-naphthyridine-7(8H)-carboxamide]"
9,< 5,"O=C(Nc1ccc(Cl)cc1)N1CCc2cccnc2[C@H]1c1ccc(C(F)(F)F)cc1 [Example 23, (R)—N-(4-chlorophenyl)-8-(4-(trifluoromethyl)phenyl)-5,6-dihydro-1,7-naphthyridine-7(8H)-carboxamide]"
10,< 5,"C[C@H](NC(=O)N1CCc2cccnc2[C@H]1c1ccc(C(F)(F)F)cc1)c1ccccc1 [Example 24, (R)—N—((S)-1-phenylethyl)-8-(4-(trifluoromethyl)phenyl)-5,6-dihydro-1,7-naphthyridine-7(8H)-carboxamide]"
11,< 5,"CN(C)c1ccc(NC(=O)N2CCc3cccnc3[C@H]2c2ccc(C(F)(F)F)cc2)cc1 [Example 25, (R)—N-(4-(dimethylamino)phenyl)-8-(4-(trifluoromethyl)phenyl)-5,6-dihydro-1,7-naphthyridine-7(8H)-carboxamide]"
12,< 5,"O=C(Nc1ccc(F)c(F)c1)N1CCc2cccnc2[C@H]1c1ccc(C(F)(F)F)cc1 [Example 26, (R)—N-(3,4-difluorophenyl)-8-(4-(trifluoromethyl)phenyl)-5,6-dihydro-1,7-naphthyridine-7(8H)-carboxamide]"
13,< 5,"Cc1noc(C)c1NC(=O)N1CCc2cccnc2[C@H]1c1ccc(C(F)(F)F)cc1 [Example 27, (R)—N-(3,5-dimethylisoxazol-4-yl)-8-(4-(trifluoromethyl)phenyl)-5,6-dihydro-1,7-naphthyridine-7(8H)-carboxamide]"
